Molecular target: T1, human CCR10 (Homo sapiens, UniProt P46092)
T1 construct: expressed in transfected cells; host or cells: KJMGER8 cells (Namalwa cell-derived line), beta-estradiol-induced; hCCR10G16 cells
T1 sequence (P46092 1-362): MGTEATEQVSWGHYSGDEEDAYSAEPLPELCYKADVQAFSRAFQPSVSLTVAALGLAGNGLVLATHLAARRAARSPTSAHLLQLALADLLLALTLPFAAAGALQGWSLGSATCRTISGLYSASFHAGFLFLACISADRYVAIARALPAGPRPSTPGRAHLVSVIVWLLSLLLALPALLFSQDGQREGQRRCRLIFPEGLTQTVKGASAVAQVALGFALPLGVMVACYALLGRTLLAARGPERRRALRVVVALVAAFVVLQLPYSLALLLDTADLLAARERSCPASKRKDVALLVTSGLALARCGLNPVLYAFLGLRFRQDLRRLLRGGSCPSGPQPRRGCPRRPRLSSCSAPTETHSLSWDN
Test: CCR10 antagonistic effect: calcium assay of human CCR10 (CTACK-induced increase of intracellular calcium in hCCR10G16 cells)
Format: cell-based
Settings: at a concentration of not more than 1000 nmol/L; human CCR10-expressing hCCR10G16 cells, 300 nmol/L CTACK added; read-out: inhibition of increase in the calcium ion concentration
Method in brief: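 Inhibition of CTACK-evoked calcium flux (max minus min Fluo-3 fluorescence over ~5 min, FDSS) was calculated against control in β-estradiol-induced human CCR10/Gα16 KJMGER8 cells, after 30 min compound preincubation at 37 °C; CTACK added from a 300 nmol/L solution.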

Inhibition at up to 1 µM, ≥ 50%:
NS(=O)(=O)c1cc(Nc2ccc(Br)cc2F)c(C(=O)N2CCC(c3ccc(F)cc3)CC2)cn1 [Compound 91, 4-(4-bromo-2-fluorophenylamino)-5-[4-(4-fluorophenyl)piperidine-1-carbonyl]pyridine-2-sulfonamide]
Cc1cc(F)ccc1Nc1cc(S(=O)(=O)NC2CC2)ncc1C(=O)N1CCC(c2ccc(F)cc2)CC1 [Compound 5, N-cyclopropyl-4-(4-fluoro-2-methylphenylamino)-5-[4-(4-fluorophenyl)piperidine-1-carbonyl]pyridine-2-sulfonamide]
Cc1cc(F)ccc1Nc1cc(S(=O)(=O)NC(=O)C2CC2(F)F)ncc1C(=O)N1CCC(c2ccc(F)cc2)CC1 (stereo not drawn) [Compound 14, 2,2-difluoro-N-{4-(4-fluoro-2-methylphenylamino)-5-[4-(4-fluorophenyl)piperidine-1-carbonyl]pyridine-2-sulfonyl}cyclopropanecarboxamide]
Cc1c(S(=O)(=O)Nc2ccon2)ncc(C(=O)N2CCC(c3ccc(F)cc3)CC2)c1Nc1ccccc1F [Compound 255, 5-[4-(4-fluorophenyl)piperidine-1-carbonyl]-4-(2-fluorophenylamino)-N-(isoxazol-3-yl)-3-methylpyridine-2-sulfonamide]
CCOC(=O)NS(=O)(=O)c1cc(Nc2ccc(F)cc2C)c(C(=O)N2CCC(c3ccc(F)cc3)CC2)cn1 [Compound 174, ethyl 4-(4-fluoro-2-methylphenylamino)-5-[4-(4-fluorophenyl)piperidine-1-carbonyl]pyridin-2-ylsulfonylcarbamate]
Cc1ncc(Nc2c(C(=O)N3CCC(c4ccc(F)cc4)CC3)cnc(S(N)(=O)=O)c2Cl)c(C)n1 [Compound 219, 3-chloro-4-(2,4-dimethylpyrimidin-5-ylamino)-5-[4-(4-fluorophenyl)piperidine-1-carbonyl]pyridine-2-sulfonamide]
Cc1cccc(Nc2cc(S(N)(=O)=O)ncc2C(=O)N2CCC(c3ccc(F)cc3)CC2)c1 [Compound 96, 5-[4-(4-fluorophenyl)piperidine-1-carbonyl]-4-(m-tolylamino)pyridine-2-sulfonamide]
NS(=O)(=O)c1ncc(C(=O)N2CCC(c3ccc(F)cc3)CC2)c(N[C@H]2C[C@@H]3CC[C@H]2O3)c1Cl [Compound 217, 4-((1R,2S,4S)-7-oxabicyclo[2.2.1]heptan-2-ylamino)-3-chloro-5-[4-(4-fluorophenyl)piperidine-1-carbonyl]pyridine-2-sulfonamide]
Cc1ccc(Nc2cc(S(N)(=O)=O)ncc2C(=O)N2CCC(c3ccc(F)cc3)CC2)c(Cl)c1 [Compound 58, 4-(2-chloro-4-methylphenylamino)-5-[4-(4-fluorophenyl)piperidine-1-carbonyl]pyridine-2-sulfonamide]
Cc1c(S(=O)(=O)Nc2ccon2)ncc(C(=O)N2CCC(c3ccc(F)cc3)CC2)c1Nc1ccc(Cl)c(Cl)c1 [Compound 279, 4-(3,4-dichlorophenylamino)-5-[4-(4-fluorophenyl)piperidine-1-carbonyl]-N-(isoxazol-3-yl)-3-methylpyridine-2-sulfonamide]
COc1ccc(NS(=O)(=O)c2ncc(C(=O)N3CCC(c4ccc(F)cc4)CC3)c(Nc3ccc(F)cc3C)c2Cl)cc1 [Compound 38, 3-chloro-4-(4-fluoro-2-methylphenylamino)-5-[4-(4-fluorophenyl)piperidine-1-carbonyl]-N-(4-methoxyphenyl)pyridine-2-sulfonamide]
Cc1cc(Nc2c(C(=O)N3CCC(c4ccc(F)cc4)CC3)cnc(S(N)(=O)=O)c2Cl)ccc1F [Compound 31, 3-chloro-4-(4-fluoro-3-methylphenylamino)-5-[4-(4-fluorophenyl)piperidine-1-carbonyl]pyridine-2-sulfonamide]
Cc1cc(F)ccc1Nc1cc(S(=O)(=O)Nc2c(C)noc2C)ncc1C(=O)N1CCC(c2ccc(F)cc2)CC1 [Compound 151, N-(3,5-dimethylisoxazol-4-yl)-4-(4-fluoro-2-methylphenylamino)-5-[4-(4-fluorophenyl)piperidine-1-carbonyl]pyridine-2-sulfonamide]
COc1ccc(F)c(Nc2c(C(=O)N3CCC(c4ccc(F)cc4)CC3)cnc(S(=O)(=O)Nc3ccon3)c2C)c1 [Compound 268, 4-(2-fluoro-5-methoxyphenylamino)-5-[4-(4-fluorophenyl)piperidine-1-carbonyl]-N-(isoxazol-3-yl)-3-methylpyridine-2-sulfonamide]
Cc1cc(F)ccc1Nc1cc(S(N)(=O)=O)ncc1C(=O)N1CCC(c2ccccc2)CC1 [Compound 48, 4-(4-fluoro-2-methylphenylamino)-5-(4-phenylpiperidine-1-carbonyl)pyridine-2-sulfonamide]
Cc1c(S(N)(=O)=O)ncc(C(=O)N2CCN(c3ccc(F)cc3)C(=O)C2)c1NCc1ccccc1 [Compound 253, 4-(benzylamino)-5-[4-(4-fluorophenyl)-3-oxopiperazine-1-carbonyl]-3-methylpyridine-2-sulfonamide]
Cc1ccc(Cl)cc1Nc1c(C(=O)N2CC(c3ccc(F)cc3)C2)cnc(S(N)(=O)=O)c1Cl [Compound 314, 3-chloro-4-(5-chloro-2-methylphenylamino)-5-[3-(4-fluorophenyl)azetidine-1-carbonyl]pyridine-2-sulfonamide]
Cc1cc(F)ccc1Nc1cc(S(=O)(=O)NCC#N)ncc1C(=O)N1CCC(c2ccc(F)cc2)CC1 [Compound 135, N-(cyanomethyl)-4-(4-fluoro-2-methylphenylamino)-5-[4-(4-fluorophenyl)piperidine-1-carbonyl]pyridine-2-sulfonamide]
COC1(c2ccc(F)cc2)CCN(C(=O)c2cnc(S(N)(=O)=O)c(Cl)c2Nc2cccc(C)c2)CC1 [Compound 208, 3-chloro-5-[4-(4-fluorophenyl)-4-methoxypiperidine-1-carbonyl]-4-(m-tolylamino)pyridine-2-sulfonamide]
COc1cc(C)c(Nc2cc(S(N)(=O)=O)ncc2C(=O)N2CCC(c3ccc(F)cc3)CC2)cc1Cl [Compound 104, 4-(5-chloro-4-methoxy-2-methylphenylamino)-5-[4-(4-fluorophenyl)piperidine-1-carbonyl]pyridine-2-sulfonamide]
CSc1nccc(NS(=O)(=O)c2cc(Nc3ccc(F)cc3C)c(C(=O)N3CCC(c4ccc(F)cc4)CC3)cn2)n1 [Compound 150, 4-(4-fluoro-2-methylphenylamino)-5-[4-(4-fluorophenyl)piperidine-1-carbonyl]-N-[2-(methylthio)pyrimidin-4-yl]pyridine-2-sulfonamide]
COC1(c2ccc(F)cc2)CCN(C(=O)c2cnc(S(N)(=O)=O)c(C)c2NCc2ccccc2)CC1 [Compound 262, 4-(benzylamino)-5-[4-(4-fluorophenyl)-4-methoxypiperidine-1-carbonyl]-3-methylpyridine-2-sulfonamide]
CCc1ccc(Nc2c(C(=O)N3CCC(c4ccc(F)cc4)CC3)cnc(S(N)(=O)=O)c2Cl)cc1 [Compound 310, 3-chloro-4-(4-ethylphenylamino)-5-[4-(4-fluorophenyl)piperidine-1-carbonyl]pyridine-2-sulfonamide]
COc1ccc(C#N)c(Nc2c(C(=O)N3CCC(c4ccc(F)cc4)CC3)cnc(S(N)(=O)=O)c2Cl)c1 [Compound 321, 3-chloro-4-(2-cyano-5-methoxyphenylamino)-5-[4-(4-fluorophenyl)piperidine-1-carbonyl]pyridine-2-sulfonamide]
NS(=O)(=O)c1ncc(C(=O)N2CCC(c3ccc(F)cc3)CC2)c(NC2CCc3ccccc32)c1Cl (stereo not drawn) [Compound 237, 3-chloro-4-(2,3-dihydro-1H-inden-1-ylamino)-5-[4-(4-fluorophenyl)piperidine-1-carbonyl]pyridine-2-sulfonamide]
COC(=O)C1(c2ccccc2)CCN(C(=O)c2cnc(S(N)(=O)=O)c(Cl)c2Nc2cccc(C)c2)CC1 [Compound 201, methyl 1-[5-chloro-6-sulfamoyl-4-(m-tolylamino)nicotinoyl]-4-phenylpiperidine-4-carboxylate]
COC1(c2ccc(F)cc2)CCN(C(=O)c2cnc(S(N)(=O)=O)c(Cl)c2Nc2cc(Cl)ccc2C)CC1 [Compound 313, 3-chloro-4-(5-chloro-2-methylphenylamino)-5-[4-(4-fluorophenyl)-4-methoxypiperidine-1-carbonyl]pyridine-2-sulfonamide]

Source: patent US9701689B2, “Substituted pyridines and pyridazines as CCR10 receptor inhibitors” (KYOWA HAKKO KIRIN CO., LTD., priority 2012, dated 2017)
